Measured values from patent publication US20240317725A1, “LPA1 SMALL MOLECULE ANTAGONIST” (TUOJIE BIOTECH (SHANGHAI) CO., LTD., priority 2021, published 2024).

Target: T1, human lysophosphatidic acid receptor 1 (LPAR1) (Homo sapiens, UniProt Q92633)
T1 construct: host or cells: CHO-K1 (Chinese hamster ovary K1) cells, CHO-K1/LPA1R, kept under hygromycin B selection
Experiment: FLIPR test of antagonist properties: inhibition of LPA-induced intracellular calcium elevation in CHO-K1 cells expressing hLPAR1
Format: cell-based
Details: FLIPR calcium assay, CHO-K1/LPA1R cells, LPA at EC80
Procedure: The antagonist properties of the compounds of the present disclosure were tested using the FLIPR (fluorometric imaging plate reader) method. The compounds are inhibitors of intracellular calcium elevation induced by activation of hLPARI (human lysophosphatidic acid receptor 1) expressed in CHO-K1 cells (Chinese hamster ovary K1 cells, HDB).
2.1. Reaction buffer: HBSS+20 mM HEPES+0.1% fatty acid-free BSA+0.001% F-127
2.2. 50×Red dye: (a red dye for blocking background signals in cells) prepared by: weighing out 4 g of tartrazine and 10.2 g of acid red and dissolving them in 100 mL of H2O.
2.3. Fluo-8 staining mixture: 4 mL of reaction buffer, 32 μL of fluo-8, 320 μL of 50×Red dye, and 40 μL of probenecid.
3.1. LPA: dissolved in DPBS (containing 0.1% fatty acid-free BSA) to prepare a 0.8 μM stock solution, and the solution was aliquoted and stored at −20° C.
3.2. Test compound preparation: The test compounds were dissolved in DMSO to prepare 10 mM stock solutions, and the solutions were stored at −20° C. In the experiment, the compounds were first gradient-diluted with DMSO (initial concentration of 50 μM, 3-fold dilution, 10 points) to prepare 200×compound solutions. The compound solutions were then diluted with reaction buffer to give 5×compound solutions, and the solutions were transferred to a 384-well plate (Cat. No. 6008590) using Bravo.
4.1. CHO-K1/LPA1R cells were cultured in a cell culture medium (F-12+10% FBS+400 μg/mL hygromycin B).
4.2. When the cell confluence reached 80%, the cells were digested with 0.25% pancreatin.
4.3. When the cells became round, the digestion was stopped with the medium F-12 (10% FBS), and the cells were counted. Then the cell culture was diluted with F-12 (10% FBS) to give a cell suspension with a density of 6.7×10^5 cells/mL.
4.4. The cell suspension was added to a 384-well black cell culture plate at 30 µL/well using a Multidrop auto-dispenser, and the plate was incubated in a 37° C., 5% CO2 incubator for 20-24 h. The medium was changed to a serum-free F-12 medium, and the cells were starved for 24 h.
4.5. Dose experiment for testing LPA. Gradient dilutions of 6×LPA solution (initial concentration of 60 μM, 3-fold dilution, 10 points) were prepared with reaction buffer. The medium in the 384-well black cell culture plate was discarded and changed to reaction buffer. 10 μL of 5% DMSO reaction buffer was added, and 10 μL of Fluo-8 staining mixture was then added. The plate was incubated in the dark in a 37° C., 5% CO2 incubator for 0.5 h.
4.6. FLIPR was correspondingly programmed, the 6×LPA gradient solutions were added, and readings were taken. Two-minute data were collected.
4.7. A reaction curve was obtained from the numerical values of LPA, and the concentration of LPA at EC80 was calculated. A 6×LPA solution was prepared in a 384-well plate (Cat. No. 6008590), and HPE and ZPE were added to corresponding wells. HPE (one hundred per cent effect) was 60 μM LPA, and ZPE (zero per cent effect) was reaction buffer.
4.8. Testing of compounds. The medium in the 384-well black cell culture plate was discarded and changed to reaction buffer. 10 μL of 5×compound solution was transferred using Bravo, and then 10 μL of Fluo-8 staining mixture was added immediately. The plate was incubated in the dark in a 37° C., 5% CO2 incubator for 0.5 h.
4.9. FLIPR was correspondingly programmed, the 6×LPA solution was added, and readings were taken. Two-minute data were collected.
4.10. Finally, the output fluorescence counts were analyzed, and IC50 was calculated for the compounds.

T1 sequence (Q92633 whole entry): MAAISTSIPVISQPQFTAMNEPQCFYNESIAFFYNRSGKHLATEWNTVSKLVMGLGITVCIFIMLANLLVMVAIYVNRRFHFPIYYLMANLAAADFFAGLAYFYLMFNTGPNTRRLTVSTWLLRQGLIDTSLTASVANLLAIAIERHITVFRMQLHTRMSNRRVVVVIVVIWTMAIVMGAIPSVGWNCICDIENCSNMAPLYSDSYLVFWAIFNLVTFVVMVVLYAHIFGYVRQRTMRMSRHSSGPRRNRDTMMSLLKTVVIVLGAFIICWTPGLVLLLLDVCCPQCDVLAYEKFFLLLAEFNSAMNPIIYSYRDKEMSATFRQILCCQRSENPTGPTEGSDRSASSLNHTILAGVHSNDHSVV

SMILES | IC50
COc1ccnc(OCc2c(-c3ccc(OC4CC5CCC(C(=O)O)C5C4)c(C)n3)nnn2C)n1 (single isomer, unassigned) [Compound 11-P1, 5-((6-(5-(((4-Methoxypyrimidin-2-yl)oxy)methyl)-1-methyl-1H-1,2,3-triazol-4-yl)-2-methylpyridin-3-yl)oxy)octahydropentalene-1-carboxylic acid] | > 10000 nM
Cc1nc(-c2nnn(C)c2COc2nccc(C(F)F)n2)ccc1OC1CC2CCC(C(=O)O)C2C1 (stereo not drawn) [Compound 7, 5-((6-(5-(((4-(Difluoromethyl)pyrimidin-2-yl)oxy)methyl)-1-methyl-1H-1,2,3-triazol-4-yl)-2-methylpyridin-3-yl)oxy)octahydropentalene-1-carboxylic acid] | 93.9 nM
COCc1ccnc(OCc2c(-c3ccc(OC4CC5CCC(C(=O)O)C5C4)c(C)n3)nnn2C)n1 (single isomer, unassigned) [Compound 3-P2, 5-((6-(5-(((4-(Methoxymethyl)pyrimidin-2-yl)oxy)methyl)-1-methyl-1H-1,2,3-triazol-4-yl)-2-methylpyridin-3-yl)oxy)octahydropentalene-1-carboxylic acid] | 1380 nM
Cc1nc(-c2nnn(C)c2COc2nccc(C(C)(C)O)n2)ccc1OC1CC2CCC(C(=O)O)C2C1 (single isomer, unassigned) [Compound 10-P1, 5-((6-(5-(((4-(2-Hydroxypropan-2-yl)pyrimidin-2-yl)oxy)methyl)-1-methyl-1H-1,2,3-triazol-4-yl)-2-methylpyridin-3-yl)oxy)octahydropentalene-1-carboxylic acid] | 88.7 nM
CCOCc1ccnc(OCc2c(-c3ccc(OC4CC5CCC(C(=O)O)C5C4)c(C)n3)nnn2C)n1 (single isomer, unassigned) [Compound 13-P1, 5-((6-(5-(((4-(Ethoxymethyl)pyrimidin-2-yl)oxy)methyl)-1-methyl-1H-1,2,3-triazol-4-yl)-2-methylpyridin-3-yl)oxy)octahydropentalene-1-carboxylic acid] | 1090 nM
CCCN(C)C(=O)OCc1c(-c2ccc(O[C@H]3CCC[C@H](C(=O)O)C3)c(C)n2)nnn1C [BMS986278, reference compound] | 60.6 nM
COCc1ccnc(OCc2c(-c3ccc(OC4CC5CCC(F)(C(=O)O)C5C4)c(C)n3)nnn2C)n1 (single isomer, unassigned) [Compound 5-P2, 1-Fluoro-5-((6-(5-(((4-(methoxymethyl)pyrimidin-2-yl)oxy)methyl)-1-methyl-1H-1,2,3-triazol-4-yl)-2-methylpyridin-3-yl)oxy)octahydropentalene-1-carboxylic acid] | 917 nM
Cc1nc(-c2nnn(C)c2COc2nccc(C(C)(C)O)n2)ccc1OC1CC2CCC(C(=O)O)C2C1 (single isomer, unassigned) [Compound 10-P2, 5-((6-(5-(((4-(2-Hydroxypropan-2-yl)pyrimidin-2-yl)oxy)methyl)-1-methyl-1H-1,2,3-triazol-4-yl)-2-methylpyridin-3-yl)oxy)octahydropentalene-1-carboxylic acid] | 1860 nM
COCc1ccnc(OCc2c(-c3ccc(OC4CC5CCC(C)(C(=O)O)C5C4)c(C)n3)nnn2C)n1 (single isomer, unassigned) [Compound 14-P2, 5-((6-(5-(((4-(Methoxymethyl)pyrimidin-2-yl)oxy)methyl)-1-methyl-1H-1,2,3-triazol-4-yl)-2-methylpyridin-3-yl)oxy)-1-methyloctahydropentalene-1-carboxylic acid] | > 10000 nM
Cc1nc(-c2nnn(C)c2COc2nccc(O[C@@H]3CCOC3)n2)ccc1OC1CC2CCC(C(=O)O)C2C1 (single isomer, unassigned) [Compound 8-P2] | 502 nM
Cc1nc(-c2nnn(C)c2COc2nccc(C(F)(F)F)n2)ccc1O[C@H]1CCC[C@H](C(=O)O)C1 [Compound 12, (1S,3S)-3-((2-Methyl-6-(1-methyl-5-(((4-(trifluoromethyl)pyrimidin-2-vl)oxy)methyl)-1H-1,2,3-triazol-4-yl)pyridin-3-yl)oxy)cyclohexane-1-carboxylic acid] | 75 nM

Now those with a lower IC50, led by results:

IC50 | SMILES
33.4 nM | Cc1nc(-c2nnn(C)c2COc2nccc(O[C@H]3CCOC3)n2)ccc1OC1CC2CCC(C(=O)O)C2C1 (single isomer, unassigned) [Compound 9-P1]
35.8 nM | CCc1cc(OCc2c(-c3ccc(OC4CC5CCC(C(=O)O)C5C4)c(C)n3)nnn2C)ncn1 (single isomer, unassigned) [Compound 4-P2, 5-((6-(5-(((6-Ethylpyrimidin-4-yl)oxy)methyl)-1-methyl-1H-1,2,3-triazol-4-yl)-2-methylpyridin-3-yl)oxy)octahydropentalene-1-carboxylic acid]
13.3 nM | Cc1nc(-c2nnn(C)c2COc2nccc(C(F)(F)F)n2)ccc1OC1CC2CCC(C(=O)O)C2C1 (single isomer, unassigned) [Compound 1-P1, 5-((2-Methyl-6-(1-methyl-5-(((4-(trifluoromethyl)pyrimidin-2-yl)oxy)methyl)-1H-1,2,3-triazol-4-yl)pyridin-3-yl)oxy)octahydropentalene-1-carboxylic acid]
26 nM | Cc1nc(-c2nnn(C)c2COc2noc(C3CC3)n2)ccc1OC1CC2CCC(C(=O)O)C2C1 (single isomer, unassigned) [Compound 2-P1, 5-((6-(5-(((5-Cyclopropyl-1,2,4-oxadiazol-3-yl)oxy)methyl)-1-methyl-1H-1,2,3-triazol-4-yl)-2-methylpyridin-3-yl)oxy)octahydropentalene-1-carboxylic acid]
27.9 nM | CCOCc1ccnc(OCc2c(-c3ccc(OC4CC5CCC(C(=O)O)C5C4)c(C)n3)nnn2C)n1 (single isomer, unassigned) [Compound 13-P2, 5-((6-(5-(((4-(Ethoxymethyl)pyrimidin-2-yl)oxy)methyl)-1-methyl-1H-1,2,3-triazol-4-yl)-2-methylpyridin-3-yl)oxy)octahydropentalene-1-carboxylic acid]
8.7 nM | COCc1ccnc(OCc2c(-c3ccc(OC4CC5CCC(C(=O)O)C5C4)c(C)n3)nnn2C)n1 (single isomer, unassigned) [Compound 3-P1, 5-((6-(5-(((4-(Methoxymethyl)pyrimidin-2-yl)oxy)methyl)-1-methyl-1H-1,2,3-triazol-4-yl)-2-methylpyridin-3-yl)oxy)octahydropentalene-1-carboxylic acid]
41.5 nM | COCc1ccnc(OCc2c(-c3ccc(OC4CC5CCC(C)(C(=O)O)C5C4)c(C)n3)nnn2C)n1 (single isomer, unassigned) [Compound 14-P1, 5-((6-(5-(((4-(Methoxymethyl)pyrimidin-2-yl)oxy)methyl)-1-methyl-1H-1,2,3-triazol-4-yl)-2-methylpyridin-3-yl)oxy)-1-methyloctahydropentalene-1-carboxylic acid]
15.6 nM | COCc1ccnc(OCc2c(-c3ccc(OC4CC5CCC(F)(C(=O)O)C5C4)c(C)n3)nnn2C)n1 (single isomer, unassigned) [Compound 5-P1, 1-Fluoro-5-((6-(5-(((4-(methoxymethyl)pyrimidin-2-yl)oxy)methyl)-1-methyl-1H-1,2,3-triazol-4-yl)-2-methylpyridin-3-yl)oxy)octahydropentalene-1-carboxylic acid]
28 nM | Cc1nc(-c2nnn(C)c2COc2nccc(O[C@@H]3CCOC3)n2)ccc1OC1CC2CCC(C(=O)O)C2C1 (single isomer, unassigned) [Compound 8-P1]
50.6 nM | COc1ccnc(OCc2c(-c3ccc(OC4CC5CCC(C(=O)O)C5C4)c(C)n3)nnn2C)n1 (single isomer, unassigned) [Compound 11-P2, 5-((6-(5-(((4-Methoxypyrimidin-2-yl)oxy)methyl)-1-methyl-1H-1,2,3-triazol-4-yl)-2-methylpyridin-3-yl)oxy)octahydropentalene-1-carboxylic acid]
